This note sets out measurements from BindingDB's records for doi:10.1016/s0960-894x(02)00061-6 (Lek, 2002).

The experiment concerns the target Beta-lactamase TEM (Escherichia coli, UniProt P62593). The experiment is described as follows: ChEBML_47839. The protocol: The compound was tested for its inhibitory activity towards Class A TEM-1 beta-lactamase from Escherichia coli at 0.3 umol

Beta-lactamase TEM, sequence (P62593 whole entry): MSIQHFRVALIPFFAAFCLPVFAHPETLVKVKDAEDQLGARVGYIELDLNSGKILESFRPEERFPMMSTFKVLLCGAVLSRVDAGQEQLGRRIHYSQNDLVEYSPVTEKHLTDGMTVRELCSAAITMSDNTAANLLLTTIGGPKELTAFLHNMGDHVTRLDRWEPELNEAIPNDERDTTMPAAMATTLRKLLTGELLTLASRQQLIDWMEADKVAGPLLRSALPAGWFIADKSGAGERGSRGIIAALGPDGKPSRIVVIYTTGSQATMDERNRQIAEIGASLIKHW

`C/C=C1/C(=O)N2C(C(=O)O)=C3CCCCC3[C@H]12` (stereo partly drawn) [Sodium; (R)-1-eth-(E)-ylidene-2-oxo-1,2,5,6,7,8,8a,8b-octahydro-azeto[2,1-a]isoindole-4-carboxylate] showed an IC50 of 120 µM.
